For 17 compounds, inhibition and IC50 results are on record in patent US10975037B2 (priority 2018, dated 2021).

Where two headings read alike, the source gives them in different places. Some results are limits rather than exact numbers.

In this assay the target is full-length human RORγt (Homo sapiens (Human), UniProt P51449). The assay can be described thus: RORγt (full-length human) reporter assay, conditions A or B, HEK293T cells. Conditions: for inhibition at 1 µM: 1 μM compound concentration (footnote ***); for inhibition at 0.67 µM: 0.67 μM compound concentration (footnote ****); for inhibition at 2 µM: 2 μM compound concentration; for IC50: RORγt (FL) Reporter Assay A or B, IC50, HEK293T cells. The class given is cell-based. How it is done: RORγt (Full-Length Human) Reporter Assay:
(§1) HEK293T cells were plated at 35,000 per well in 96-well plate in medium of DMEM with 10% FBS. […] After overnight (16 to 20 hours) incubation, media were removed and cells were lysed with 50 L Glo Lysis Buffer (Promega) for 10-15 minutes followed by 10 minute incubation with 50 μL Dual Glo reagent (Promega) at room temperature. Firefly luciferase luminescence was measured using a BMG Pherastar plate reader. To each well, 50 μL Stop and Glo reagent was added and incubated for 10 minutes at room temperature. Renilla luminescence was measured using a BMG Pherastar plate reader. To calculate the effect of compounds on RORγt activity, firefly values were normalized against values of DMSO only and values of reference compound at saturating concentration, then further normalized against Renilla signals. IC50s were generated by plotting final Renilla normalized data against compound concentration and percent inhibition was calculated against DMSO control.
as §1, with “at 8750 cells” for “at 35,000”, “in 384-well” for “in 96-well”, “with 20” for “with 50”, “well, 20” for “well, 50”
For orientation: Reporter assays use an easily measured gene product as a stand-in for the process of interest.

The mark [1] stands for this setting: HEK-293T, read-out: RORγt (FL) Reporter Assay A or B, % inhibition.
Setting [2] is: HEK-293T, 3 μM compound concentration (footnote *), read-out: RORγt (FL) Reporter Assay A or B, % inhibition.

Chain of full-length human RORγt (P51449 other isoform, or with tags, fused parts or gaps): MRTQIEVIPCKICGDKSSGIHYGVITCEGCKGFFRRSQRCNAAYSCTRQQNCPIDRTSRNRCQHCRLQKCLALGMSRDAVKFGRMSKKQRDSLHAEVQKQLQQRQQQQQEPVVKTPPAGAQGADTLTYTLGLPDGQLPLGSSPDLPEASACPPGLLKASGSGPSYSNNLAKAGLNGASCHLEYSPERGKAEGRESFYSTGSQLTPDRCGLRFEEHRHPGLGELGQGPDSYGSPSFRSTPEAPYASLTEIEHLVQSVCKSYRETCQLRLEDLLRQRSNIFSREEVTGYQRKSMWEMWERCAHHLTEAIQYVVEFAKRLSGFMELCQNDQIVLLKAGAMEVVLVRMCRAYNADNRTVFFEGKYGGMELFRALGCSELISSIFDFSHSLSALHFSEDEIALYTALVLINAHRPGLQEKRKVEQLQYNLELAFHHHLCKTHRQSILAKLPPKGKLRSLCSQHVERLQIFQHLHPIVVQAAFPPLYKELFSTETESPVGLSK

By inhibition is commonly meant the drop in the measured response relative to a control, in per cent. `CCn1nc(C(=O)NC[C@]2(O)CC[C@@H](S(C)(=O)=O)CC2)c(Cl)c1-c1ccc([C@H](O)C2(C(F)(F)F)CC2)cc1OC(F)F` (single isomer, unassigned) [Example 110, 4-Chloro-5-(2-(difluoromethoxy)-4-((S*)-hydroxy(1-(trifluoromethyl)cyclopropyl)methyl)phenyl)-1-ethyl-N-(((1s,4R)-1-hydroxy-4-(methylsulfonyl)cyclohexyl)methyl)-1H-pyrazole-3-carboxamide]: under setting [1], the inhibition at 1 µM was found to be 75%.
Turning to `[2H]C([2H])([2H])Oc1cc(CC(C)(C)C(F)(F)F)ccc1-c1c(Cl)c(C(=O)NC[C@H]2CC[C@H](S(C)(=O)=O)CC2)nn1CC` [Example 193, 4-Chloro-1-ethyl-5-(2-(methoxy-d3)-4-(3,3,3-trifluoro-2,2-dimethylpropyl)phenyl)-N-(((1r,4r)-4-(methylsulfonyl)cyclohexyl)methyl)-1H-pyrazole-3-carboxamide], the inhibition at 0.67 µM under setting [1] worked out at 93%.
For the compound `CCn1nc(C(=O)NC[C@]2(O)CC[C@@H](S(C)(=O)=O)CC2)c(Cl)c1-c1ccc([C@@H](O)C(C)(C)C(F)(F)F)cc1OC(F)F` (single isomer, unassigned) [Example 108, 4-Chloro-5-(2-(difluoromethoxy)-4-((R*)-3,3,3-trifluoro-1-hydroxy-2,2-dimethylpropyl)phenyl)-1-ethyl-N-(((1s,4S)-1-hydroxy-4-(methylsulfonyl)cyclohexyl)methyl)-1H-pyrazole-3-carboxamide], the inhibition at 3 µM under setting [2] worked out at 92%.
As to `CCn1nc(C(=O)NC[C@]2(O)CC[C@@H](S(C)(=O)=O)CC2)c(Cl)c1-c1ccc([C@H](O)C(C)(C)C(F)(F)F)cc1OC(F)F` (single isomer, unassigned) [Example 107, 4-Chloro-5-(2-(difluoromethoxy)-4-((S*)-3,3,3-trifluoro-1-hydroxy-2,2-dimethylpropyl)phenyl)-1-ethyl-N-(((1s,4R)-1-hydroxy-4-(methylsulfonyl)cyclohexyl)methyl)-1H-pyrazole-3-carboxamide], the inhibition at 3 µM under setting [1] came out at 104%.
Turning to `CCn1nc(C(=O)NC[C@]2(O)CC[C@@H](S(C)(=O)=O)CC2)c(Cl)c1-c1ccc([C@](C)(O)CCC(F)(F)F)cc1OC(F)F` (relative stereo) [Example 103, 4-Chloro-5-(2-(difluoromethoxy)-4-((R*)-5-trifluoro-2-hydroxypentan-2-yl)phenyl)-1-ethyl-N-(((1s,4S)-1-hydroxy-4-(methylsulfonyl)cyclohexyl)methyl)-1H-pyrazole-3-carboxamide], the inhibition at 3 µM under setting [2] stood at 107%.
Broadly, the IC50 is the concentration at which inhibition is half-maximal. Turning to `CCOC(=O)[C@]1(CNC(=O)c2nn(CC)c(-c3ccc(CC(C)(C)C(F)(F)F)cc3OC(F)F)c2Cl)CC[C@H](S(C)(=O)=O)CC1` [Example 118, Ethyl (1s*,4s*)-1-((4-chloro-5-(2-(difluoromethoxy)-4-(3,3,3-trifluoro-2,2-dimethylpropyl)phenyl)-1-ethyl-1H-pyrazole-3-carboxamido)methyl)-4-(methylsulfonyl)cyclohexane-1-carboxylate], inhibition was half-maximal at 2.4 nM (IC50). Besides, the inhibition at 2 µM under setting [1] turned out to be 103%.
In the case of `CCn1nc(C(=O)NC[C@H]2CC[C@H](S(C)(=O)=O)CC2)c(Cl)c1-c1ccc(OCC2CC2(F)F)cc1OC` (stereo partly shown) [Example 209, 4-Chloro-5-(4-((2,2-difluorocyclopropyl)methoxy)-2-methoxyphenyl)-1-ethyl-N-(((1r,4r)-4-(methylsulfonyl)cyclohexyl)methyl)-1H-pyrazole-3-carboxamide], the inhibition at 2 µM under setting [1] is 82%.
`CCn1nc(C(=O)NC[C@]2(O)CC[C@@H](S(C)(=O)=O)CC2)c(Cl)c1-c1ccc(C[C@@H](C)C(F)(F)F)cc1OC` [Example 36, 4-Chloro-1-ethyl-N-(((1s,4S)-1-hydroxy-4-(methylsulfonyl)cyclohexyl)methyl)-5-(2-methoxy-4-((R)-3,3,3-trifluoro-2-methylpropyl)phenyl)-1H-pyrazole-3-carboxamide]: the inhibition at 2 µM under setting [1] is 101%.
`CCn1nc(C(=O)NC[C@]2(O)CC[C@@H](S(C)(=O)=O)CC2)c(C)c1-c1ccc(C[C@@H](C)C(F)(F)F)cc1OC(F)F` [Example 142, 5-(2-(Difluoromethoxy)-4-((R)-3,3,3-trifluoro-2-methylpropyl)phenyl)-1-ethyl-N-(((1s,4S)-1-hydroxy-4-(methylsulfonyl)cyclohexyl)methyl)-4-methyl-1H-pyrazole-3-carboxamide]: the inhibition at […] (HEK-293T, 0.33 μM compound concentration (footnote *****), read-out: RORγt (FL) Reporter Assay A or B, % inhibition) is 87%.
Turning to `CCn1nc(C(=O)NC[C@H]2CC[C@H](S(C)(=O)=O)CC2)c(Cl)c1-c1ccc(OCC2CC2(F)F)cc1OC` (single isomer, unassigned) [Example 211, 4-Chloro-5-(4-(((R*)-2,2-difluorocyclopropyl)methoxy)-2-methoxyphenyl)-1-ethyl-N-(((1r,4R)-4-(methylsulfonyl)cyclohexyl)methyl)-1H-pyrazole-3-carboxamide], under setting [1], the inhibition at 2 µM is 66%.
For the compound `CCn1nc(C(=O)NC[C@]2(O)CC[C@@H](S(C)(=O)=O)CC2)c(Cl)c1-c1ccc(C(O)C2(C(F)(F)F)CC2)cc1OC(F)F` (stereo partly shown) [Example 109, 4-Chloro-5-(2-(difluoromethoxy)-4-(hydroxy(1-(trifluoromethyl)cyclopropyl)methyl)phenyl)-1-ethyl-N-(((1s,4s)-1-hydroxy-4-(methylsulfonyl)cyclohexyl)methyl)-1H-pyrazole-3-carboxamide], the inhibition at 3 µM under setting [1] stood at 88%.
As to `[2H]C([2H])([2H])Oc1cc(CC(C)(C)C(F)(F)F)ccc1-c1c(Cl)c(C(=O)NC[C@]2(O)CC[C@@H](S(C)(=O)=O)CC2)nn1CC` [Example 192, 4-Chloro-1-ethyl-N-(((1s,4s)-1-hydroxy-4-(methylsulfonyl)cyclohexyl)methyl)-5-(2-(methoxy-d3)-4-(3,3,3-trifluoro-2,2-dimethylpropyl)phenyl)-1H-pyrazole-3-carboxamide], the inhibition at 2 µM under setting [1] was found to be 96%.
Consider `CCn1nc(C(=O)NC[C@]2(O)CC[C@@H](S(C)(=O)=O)CC2)c(Cl)c1-c1ccc(CC(C)(C)C(F)(F)F)cc1OC` [Example 45, 4-Chloro-1-ethyl-N-(((1s,4s)-1-hydroxy-4-(methylsulfonyl)cyclohexyl)methyl)-5-(2-methoxy-4-(3,3,3-trifluoro-2,2-dimethylpropyl)phenyl)-1H-pyrazole-3-carboxamide], for which, under setting [1], the inhibition at 2 µM was 88%.
`CCn1nc(C(=O)NC[C@]2(O)CC[C@@H](S(C)(=O)=O)CC2)c(Cl)c1-c1ccc(C[C@H](C)C(F)(F)F)cc1OC` (single isomer, unassigned) [Example 37, 4-Chloro-1-ethyl-N-(((1s,4R)-1-hydroxy-4-(methylsulfonyl)cyclohexyl)methyl)-5-(2-methoxy-4-((S*)-3,3,3-trifluoro-2-methylpropyl)phenyl)-1H-pyrazole-3-carboxamide]: under setting [1], the inhibition at 0.67 µM came to 97%.
As for `CCn1nc(C(=O)NC[C@]2(O)CC[C@@H](S(C)(=O)=O)CC2)c(Cl)c1-c1ccc(C(C)(O)CCC(F)(F)F)cc1OC(F)F` (stereo partly shown) [Example 101, 4-Chloro-5-(2-(difluoromethoxy)-4-(5,5,5-trifluoro-2-hydroxypentan-2-yl)phenyl)-1-ethyl-N-(((1s,4s)-1-hydroxy-4-(methylsulfonyl)cyclohexyl)methyl)-1H-pyrazole-3-carboxamide], the inhibition at 3 µM under setting [2] worked out at 115%.
The compound `CCn1nc(C(=O)NC[C@]2(O)CC[C@@H](S(C)(=O)=O)CC2)c(Cl)c1-c1ccc(CCC(F)(F)F)cc1C(F)(F)F` [Example 170, 4-Chloro-1-ethyl-N-(((1s,4s)-1-hydroxy-4-(methylsulfonyl)cyclohexyl)methyl)-5-(2-(trifluoromethyl)-4-(3,3,3-trifluoropropyl)phenyl)-1H-pyrazole-3-carboxamide] returned an IC50 above 2000 nM. The inhibition at 2 µM under setting [1] was found to be 5%.
In the case of `CCn1nc(C(=O)NC[C@]2(O)CC[C@@H](S(C)(=O)=O)CC2)c(Cl)c1-c1ccc(C(O)C(C)(C)C(F)(F)F)cc1OC(F)F` (stereo partly shown) [Example 106, 4-Chloro-5-(2-(difluoromethoxy)-4-(3,3,3-trifluoro-1-hydroxy-2,2-dimethylpropyl)phenyl)-1-ethyl-N-(((1s,4s)-1-hydroxy-4-(methylsulfonyl)cyclohexyl)methyl)-1H-pyrazole-3-carboxamide], the inhibition at 1 µM under setting [1] came out at 115%.
